# Measured values reported in patent US20250144067A1, “PERSONALIZED STARVATION THERAPY FOR CANCER” (Faeth Therapeutics, Inc., priority 2021, published 2025).
# Where a name gives a salt, the structure may show the parent alone. Ends that are not written are not given here.
# Columns and labels:
# [1] = test system: NCI-H292 lung cancer cells; test: FDA drug screening, complete media vs cholesterol-free media without statin (TABLE 1); type: cell-based, human
# [2] = test system: NCI-H292 lung cancer cells; test: FDA drug screening, complete media vs cholesterol-free media with simvastatin (TABLE 2); type: cell-based, human; conditions: for Complete Media / Cholesterol-free media + simvastatin (0.04 μM): NCI-H292 cells
# [3] = NCI-H292 cells, cholesterol-free media without statin
# [4] = complete vs cholesterol-free media, […]
# [5] = complete media vs cholesterol-free media + simvastatin (0.04 μM), […]
# [6] = NCI-H292 cells, FDA drug library screen, cholesterol-free media without statin
# [7] = NCI-H292 cells, FDA drug library screen, complete media
# [8] = FDA drug library screen, cholesterol-free media with simvastatin 0.04 μM
# [9] = FDA drug library screen, complete media
# [10] = complete media vs cholesterol-free media + simvastatin (0.04 μM), >0 enhanced anti-cancer activity, about 0 neutral, <0 antagonist
# [11] = Complete minus Cholesterol-free, >0 enhanced anti-cancer activity, about 0 neutral, <0 antagonist
# [12] = NCI-H292 cells, cholesterol-free media without statin, FDA drug library screen
# [13] = NCI-H292 cells, complete media, FDA drug library screen
# [14] = complete media minus cholesterol-free media + simvastatin (0.04 μM), […]
# [15] = complete media minus cholesterol-free media + simvastatin, >0 enhanced anti-cancer activity, about 0 neutral, <0 antagonist
# [16] = Complete minus Cholesterol-free, […]
# [17] = NCI-H292 cells in cholesterol-free media without statin
# [18] = NCI-H292 cells in complete media
# [19] = FDA library drug in cholesterol-free media with simvastatin 0.04 μM
# [20] = FDA library drug in complete media
# [21] = complete vs cholesterol-free media, >0 enhanced anti-cancer activity, about 0 neutral, <0 antagonist
# [22] = cholesterol-free media with simvastatin 0.04 μM, FDA drug library screen (TABLE 2)
# [23] = complete media, FDA drug library screen (TABLE 2)
# [24] = complete media minus cholesterol-free media + simvastatin (0.04 μM), >0 enhanced anti-cancer activity, about 0 neutral, <0 antagonist
# [25] = Complete minus Cholesterol-free, greater than 0 enhanced anti-cancer activity, about 0 neutral, below 0 antagonists
# [26] = drug in cholesterol-free media with simvastatin 0.04 μM
# [27] = complete vs cholesterol-free media, greater than 0 enhanced anti-cancer activity, about 0 neutral, below 0 antagonists
compound,measurement,setting,value
"Angiotensin III (TFA) (RVYIHPF; also: TFA salt; UniProt P01019 26-32, looked up)",Cholesterol-free,[1]; [3],1.338
same,Complete,"[1]; NCI-H292 cells, complete media",0.9878
same,Difference,[1]; [4],−0.35
same,Complete Media,[2]; drug in complete media,0.8125
same,Difference,[2]; [5],−0.20
C[C@@H](O)[C@H]1C(=O)N2C(C(=O)[O-])=C(SC3Cn4cnc[n+]4C3)[C@H](C)[C@H]12 (some centres unmarked) [Biapenem],Difference,"[1]; Complete minus Cholesterol-free, greater than 0 enhanced anti-cancer activity, about 0 neutral, below 0 antagonist",−0.11
same,Cholesterol-free,[1]; [6],0.9795
same,Complete,[1]; [7],0.8733
same,Cholesterol-free media + simvastatin (0.04 μM),[2]; [8],1.249
same,Complete Media,[2]; [9],1.117
same,Difference,[2]; [10],−0.13
Nc1nc(Cl)nc2c1ncn2[C@H]1C[C@H](O)[C@@H](CO)O1 [Cladribine],Difference,[1]; [11],0.07
same,Cholesterol-free,[1]; [12],−0.008506
same,Complete,[1]; [13],0.0649
same,Cholesterol-free media + simvastatin (0.04 μM),[2]; [8],0.1545
same,Complete Media,[2]; [9],0.02741
same,Difference,[2]; [10],−0.13
CCOCC(O)COc1ccc(NC(=O)CC[S+](C)C)cc1.Cc1ccc(S(=O)(=O)[O-])cc1 (centres unmarked) [Suplatast (Tosilate)],Cholesterol-free,[1]; [12],0.9586
same,Complete,[1]; [13],1.127
same,Difference,[1]; [4],0.17
same,Cholesterol-free media + simvastatin (0.04 μM),[2]; [8],2.447
same,Difference,[2]; [14],−0.95
Cc1ccc(Nc2nccc(N(C)c3ccc4c(C)n(C)nc4c3)n2)cc1S(N)(=O)=O [Pazopanib],Difference,[1]; [11],0.02
same,Cholesterol-free,[1]; [12],1.084
same,Complete,[1]; [13],1.105
same,Cholesterol-free media + simvastatin (0.04 μM),[2]; [8],1.156
same,Complete Media,[2]; [9],1.457
same,Difference,[2]; [15],0.30
COc1cc2nc(N(C)CCCNC(=O)C3CCCO3)nc(N)c2cc1OC (centres unmarked) [Alfuzosin (hydrochloride)],Difference,[1]; [11],−0.22
same,Cholesterol-free,[1]; [3],1.203
same,Complete,"[1]; NCI-H292 cells, complete media",0.9827
same,Cholesterol-free media + simvastatin (0.04 μM),[2]; [8],0.7758
same,Complete Media,[2]; [9],1.007
same,Difference,[2]; [15],0.23
Nc1ncn([C@H]2C[C@H](O)[C@@H](CO)O2)c(=O)n1 [Decitabine],Difference,[1]; [11],−0.25
same,Cholesterol-free,[1]; [3],0.8074
same,Complete,"[1]; NCI-H292 cells, complete media",0.559
same,Cholesterol-free media + simvastatin (0.04 μM),"[2]; cholesterol-free media with simvastatin 0.04 μM, cell growth value in FDA drug screen",0.7335
same,Complete Media,"[2]; complete media, cell growth value in FDA drug screen",0.7733
same,Difference,[2]; [15],0.04
Cc1cc(N2CCN([C@@H]3CN[C@H](C(=O)N4CCSC4)C3)CC2)n(-c2ccccc2)n1 [Teneligliptin (hydrobromide)],Difference,[1]; [16],−0.56
same,Cholesterol-free,[1]; [17],1.45
same,Complete,[1]; [18],0.8858
same,Cholesterol-free media + simvastatin (0.04 μM),[2]; [19],1.564
same,Complete Media,[2]; [20],1.115
same,Difference,[2]; [5],−0.45
Cc1nccn1CCC(C(N)=O)(c1ccccc1)c1ccccc1 [Imidafenacin],Cholesterol-free,[1]; [12],0.8368
same,Complete,[1]; [13],1.001
same,Difference,[1]; [21],0.16
same,Cholesterol-free media + simvastatin (0.04 μM),[2]; [22],1.409
same,Complete Media,[2]; [23],1.383
same,Difference,[2]; [24],−0.03
Nc1ccc(S(=O)(=O)c2ccc(N)cc2)cc1 [Dapsone],Difference,[1]; [25],−0.48
same,Cholesterol-free,[1]; [17],1.475
same,Complete,[1]; [18],0.9984
same,Cholesterol-free media + simvastatin (0.04 μM),[2]; [8],0.9689
same,Complete Media,[2]; [9],1.132
same,Difference,[2]; [15],0.16
O=C1c2ccccc2C(=O)C1c1ccccc1 [Phenindione],Cholesterol-free,[1]; [12],0.7484
same,Difference,[1]; [21],0.40
same,Cholesterol-free media + simvastatin (0.04 μM),[2]; [26],1.567
same,Complete Media,[2]; drug in complete media,1.395
same,Difference,[2]; [10],−0.17
CC(=O)CC(c1ccc([N+](=O)[O-])cc1)c1c(O)c2ccccc2oc1=O (centres unmarked) [Acenocoumarol],Difference,[1]; [11],−0.28
same,Cholesterol-free,[1]; [3],1.889
same,Complete,"[1]; NCI-H292 cells, complete media",1.605
same,Cholesterol-free media + simvastatin (0.04 μM),[2]; [8],2.014
same,Difference,[2]; [24],−0.90
O=C1CCC[C@@H]2[C@H]3CCCN4CCC[C@H](CN12)[C@@H]34 [Sophoridine],Cholesterol-free,[1]; [3],1.507
same,Complete,"[1]; NCI-H292 cells, complete media",1.042
same,Difference,[1]; [4],−0.46
same,Cholesterol-free media + simvastatin (0.04 μM),[2]; [19],1.337
same,Complete Media,[2]; [20],1.063
same,Difference,[2]; [5],−0.27
CC(C)(C)c1cc(-c2cc(-c3ccc(C(=O)O)cc3)ccc2OCCO)ccc1N1CCCC1 [Trifarotene],Cholesterol-free,[1]; [3],1.099
same,Complete,"[1]; NCI-H292 cells, complete media",0.7867
same,Difference,[1]; [27],−0.31
same,Cholesterol-free media + simvastatin (0.04 μM),[2]; [8],0.9343
same,Complete Media,[2]; [9],0.8355
same,Difference,[2]; [10],−0.10
Prucalopride (succinate),Cholesterol-free,[1]; [3],1.329
same,Complete,"[1]; NCI-H292 cells, complete media",0.905
same,Difference,[1]; [27],−0.42
same,Cholesterol-free media + simvastatin (0.04 μM),[2]; [8],1.172
same,Complete Media,[2]; [9],1.048
same,Difference,[2]; [10],−0.12
CCCCCCCCCCCC1=C(O)C(=O)C=C(O)C1=O [Embelin],Difference,[1]; [25],−0.48
same,Cholesterol-free,[1]; [17],1.567
same,Complete,[1]; [18],1.082
same,Cholesterol-free media + simvastatin (0.04 μM),[2]; [22],0.8998
same,Complete Media,[2]; [23],0.8298
same,Difference,[2]; [24],−0.07
Thiamine nitrate,Difference,[1]; [11],−0.26
same,Cholesterol-free,[1]; [3],0.9749
same,Complete,"[1]; NCI-H292 cells, complete media",0.7175
same,Cholesterol-free media + simvastatin (0.04 μM),[2]; [26],0.9067
same,Complete Media,[2]; drug in complete media,0.7018
same,Difference,[2]; [10],−0.20
CCCCCCCCCCCCCCCC[n+]1ccccc1.[Cl-] [Cetylpyridinium (chloride)],Difference,[1]; [16],−0.03
same,Cholesterol-free,[1]; [12],0.09243
same,Complete,[1]; [13],0.05797
same,Cholesterol-free media + simvastatin (0.04 μM),"[2]; cholesterol-free media with simvastatin 0.04 μM, […]",0.218
same,Complete Media,"[2]; complete media, […]",0.2381
same,Difference,"[2]; complete media minus cholesterol-free media + simvastatin, […]",0.02
Gramicidin,Difference,[1]; [16],−0.14
same,Cholesterol-free,[1]; [6],0.1906
same,Complete,[1]; [7],0.04898
same,Cholesterol-free media + simvastatin (0.04 μM),[2]; [22],0.2157
same,Complete Media,[2]; [23],0.2144
same,Difference,[2]; [14],0.00
CNC[C@H](O)[C@@H](O)[C@H](O)[C@H](O)CO [Meglumine],Difference,[1]; [11],−0.26
same,Cholesterol-free,[1]; [3],1.228
same,Complete,"[1]; NCI-H292 cells, complete media",0.9693
same,Cholesterol-free media + simvastatin (0.04 μM),[2]; [22],1.358
same,Complete Media,[2]; [23],1.305
same,Difference,[2]; [24],−0.05
